According to patent US20260262643A1, “HERBICIDAL BENZOXAZINES” (FMC CORPORATION, priority 2022, published 2026):

Experiments:
wheat [1] = test: Test C preemergence; assay type: in vivo, Triticum aestivum
Summary of the method: (§1)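 Visual injury score, 0–100 (100 = complete control), taken 10 days after treatment relative to untreated controls. Pre: directed spray onto soil over sown seeds. Post: foliar spray at one- to two-leaf stage, 2–10 cm. Solvent/surfactant formulation; loam–sand soil; greenhouse.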

oat, wild [2] = test: Test C postemergence; assay type: in vivo, Avena fatua; settings: 10 days, 0 to 100 scale (0 no effect, 100 complete control)
Summary of the method: as §1

ryegrass, Italian [3] = test: Test C postemergence; assay type: in vivo, Lolium multiflorum; settings: 10 days, 0 to 100 scale (0 no effect, 100 complete control)
Summary of the method: as §1

wheat [4] = test: Test C postemergence; assay type: in vivo, Triticum aestivum; settings: 10 days, 0 to 100 scale (0 no effect, 100 complete control)
Summary of the method: as §1

rice = test: Test D flooded paddy test; assay type: in vivo, Oryza sativa; settings: 250 g ai/ha, applied to paddy water, visual rating after 13 to 14 days, scale 0 to 100 (0 no effect, 100 complete control)
Summary of the method: (§2)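 Visual ratings from 0, meaning no effect, to 100, meaning complete control, were assigned against untreated controls 13 to 14 days after compounds were added to the floodwater of pots kept 3 cm deep, with plants at the 2-leaf stage.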

horseweed = test: Test C postemergence; assay type: in vivo, Erigeron canadensis; settings: 10 days, 0 to 100 scale (0 no effect, 100 complete control)
Summary of the method: as §1

barnyardgrass [5] = test: Test C preemergence; assay type: in vivo, Echinochloa crusgalli
Summary of the method: as §1

blackgrass [6] = test: Test C preemergence; assay type: in vivo, Alopecurus myosuroides
Summary of the method: as §1

pigweed, palmer [7] = test: Test C preemergence; assay type: in vivo, Amaranthus palmeri
Summary of the method: as §1

ragweed [8] = test: Test C preemergence; assay type: in vivo, Ambrosia artemisiifolia
Summary of the method: as §1

blackgrass [9] = test: Test C postemergence; assay type: in vivo, Alopecurus myosuroides; settings: 10 days, 0 to 100 scale (0 no effect, 100 complete control)
Summary of the method: as §1

barnyardgrass [10] = test: Test C postemergence; assay type: in vivo, Echinochloa crusgalli; settings: 10 days, 0 to 100 scale (0 no effect, 100 complete control)
Summary of the method: as §1

soybean [11] = test: Test C postemergence; assay type: in vivo, Glycine max; settings: 10 days, 0 to 100 scale (0 no effect, 100 complete control)
Summary of the method: as §1

ducksalad = test: Test D flooded paddy test; assay type: in vivo, Heteranthera limosa; settings: 250 g ai/ha, applied to paddy water, visual rating after 13 to 14 days, scale 0 to 100 (0 no effect, 100 complete control)
Summary of the method: as §2

sedge, umbrella = test: Test D flooded paddy test; assay type: in vivo, Cyperus difformis; settings: 250 g ai/ha, applied to paddy water, visual rating after 13 to 14 days, scale 0 to 100 (0 no effect, 100 complete control)
Summary of the method: as §2

kochia [12] = test: Test C postemergence; assay type: in vivo, Bassia scoparia; settings: 10 days, 0 to 100 scale (0 no effect, 100 complete control)
Summary of the method: as §1

barnyardgrass [13] = test: Test D flooded paddy test; assay type: in vivo, Echinochloa crus-galli; settings: 250 g ai/ha, applied to paddy water, visual rating after 13 to 14 days, scale 0 to 100 (0 no effect, 100 complete control)
Summary of the method: as §2

green foxtail [14] = test: Test C preemergence; assay type: in vivo, Setaria viridis
Summary of the method: as §1

ryegrass, Italian [15] = test: Test C preemergence; assay type: in vivo, Lolium multiflorum
Summary of the method: as §1

corn [16] = test: Test C postemergence; assay type: in vivo, Zea mays; settings: 10 days, 0 to 100 scale (0 no effect, 100 complete control)
Summary of the method: as §1

green foxtail [17] = test: Test C postemergence; assay type: in vivo, Setaria viridis; settings: 10 days, 0 to 100 scale (0 no effect, 100 complete control)
Summary of the method: as §1

corn [18] = test: Test C preemergence; assay type: in vivo, Zea mays
Summary of the method: as §1

oat, wild [19] = test: Test C preemergence; assay type: in vivo, Avena fatua
Summary of the method: as §1

pigweed, palmer [20] = test: Test C postemergence; assay type: in vivo, Amaranthus palmeri; settings: 10 days, 0 to 100 scale (0 no effect, 100 complete control)
Summary of the method: as §1

kochia [21] = test: Test C preemergence; assay type: in vivo, Bassia scoparia
Summary of the method: as §1

galium = test: Test C postemergence; assay type: in vivo, Galium aparine; settings: 10 days, 0 to 100 scale (0 no effect, 100 complete control)
Summary of the method: as §1

soybean [22] = test: Test C preemergence; assay type: in vivo, Glycine max
Summary of the method: as §1

ragweed [23] = test: Test C postemergence; assay type: in vivo, Ambrosia artemisiifolia; settings: 10 days, 0 to 100 scale (0 no effect, 100 complete control)
Summary of the method: as §1

[24] = 500 g ai/ha, preemergence, 0 to 100 scale (0 no effect, 100 complete control)
[25] = Preemergence, 125 g ai/ha, 0 to 100 scale, 0 no effect, 100 complete control

CC(C)c1ncn(-c2ccc(OS(C)(=O)=O)c(C(=O)N3C[C@H](C)Oc4c(Cl)cccc43)c2)n1 [Compound 338]
30: Plant response rating, Barnyardgrass (barnyardgrass [10]; Postemergence, 125 g ai/ha) | Plant response rating, Foxtail, Green (green foxtail [17]; Postemergence, 125 g ai/ha) | Plant response rating, Oat, Wild (oat, wild [19]; [25]) | Plant response rating, Soybean (soybean [22]; [25]) | Plant response rating, Ragweed (ragweed [23]; Postemergence, 125 g ai/ha)
90: Plant response rating, Kochia (kochia [12]; Postemergence, 125 g ai/ha) | Plant response rating, Foxtail, Green (green foxtail [14]; [25]) | Plant response rating, Ryegrass, Italian (ryegrass, Italian [15]; [25]) | Plant response rating, Pigweed, Palmer (pigweed, palmer [20]; Postemergence, 125 g ai/ha)
10: Plant response rating, Rice (Flood) (rice) | Plant response rating, Horseweed (horseweed; Postemergence, 125 g ai/ha) | Plant response rating, Barnyardgrass (Flood) (barnyardgrass [13]) | Plant response rating, Corn (corn [18]; [25])
50: Corn plant response rating (corn [18]; [24]) | Oat, Wild plant response rating (oat, wild [19]; [24])
80: Plant response rating, Ryegrass, Italian (ryegrass, Italian [3]; 500 g ai/ha, postemergence) | Blackgrass plant response rating (blackgrass [6]; [24]) | Plant response rating, Corn (corn [16]; 500 g ai/ha, postemergence) | Plant response rating, Corn (corn [16]; Postemergence, 125 g ai/ha) | Soybean plant response rating (soybean [22]; [24])
40: Plant response rating, Wheat (wheat [4]; 500 g ai/ha, postemergence) | Plant response rating, Blackgrass (blackgrass [9]; Postemergence, 125 g ai/ha) | Plant response rating, Ducksalad (Flood) (ducksalad) | Plant response rating, Ragweed (ragweed [23]; 500 g ai/ha, postemergence)
100: Barnyardgrass plant response rating (barnyardgrass [5]; [24]) | Pigweed, Palmer plant response rating (pigweed, palmer [7]; [24]) | Plant response rating, Pigweed, Palmer (pigweed, palmer [7]; [25]) | Plant response rating, Soybean (soybean [11]; 500 g ai/ha, postemergence) | Plant response rating, Soybean (soybean [11]; Postemergence, 125 g ai/ha) | Plant response rating, Kochia (kochia [12]; 500 g ai/ha, postemergence) | Foxtail, Green plant response rating (green foxtail [14]; [24]) | Ryegrass, Italian plant response rating (ryegrass, Italian [15]; [24]) | Plant response rating, Pigweed, Palmer (pigweed, palmer [20]; 500 g ai/ha, postemergence) | Kochia plant response rating (kochia [21]; [24]) | Plant response rating, Galium (galium; 500 g ai/ha, postemergence) | Plant response rating, Galium (galium; Postemergence, 125 g ai/ha)
20: Wheat plant response rating (wheat [1]; [24]) | Plant response rating, Oat, Wild (oat, wild [2]; 500 g ai/ha, postemergence) | Plant response rating, Oat, Wild (oat, wild [2]; Postemergence, 125 g ai/ha) | Plant response rating, Wheat (wheat [4]; Postemergence, 125 g ai/ha) | Plant response rating, Horseweed (horseweed; 500 g ai/ha, postemergence) | Plant response rating, Blackgrass (blackgrass [6]; [25])
45: Plant response rating, Sedge, Umbrella (Flood) (sedge, umbrella)
60: Plant response rating, Barnyardgrass (barnyardgrass [5]; [25]) | Plant response rating, Kochia (kochia [21]; [25])
0: Plant response rating, Wheat (wheat [1]; [25]) | Ragweed plant response rating (ragweed [8]; [24]) | Plant response rating, Ragweed (ragweed [8]; [25])
70: Plant response rating, Ryegrass, Italian (ryegrass, Italian [3]; Postemergence, 125 g ai/ha) | Plant response rating, Blackgrass (blackgrass [9]; 500 g ai/ha, postemergence) | Plant response rating, Barnyardgrass (barnyardgrass [10]; 500 g ai/ha, postemergence) | Plant response rating, Foxtail, Green (green foxtail [17]; 500 g ai/ha, postemergence)
